Measurements as given in patent US7628987B2, “Vectors derived from antibodies for transferring substances into cells” (Institut Pasteur, priority 1997, dated 2009).
Several values for one entry are separate records, joined by “and”; a condition that tells them apart may be missing. Equal values may be shown once. No end group written: not given here.

Tests used:
HSV-1 TK^+ virus = experiment: microbe, parasite or virus in culture; assay type: cell-based, Herpes Virus Simplex type I; settings: HSV1 TK^+
HSV-1 TK^− virus = experiment: microbe, parasite or virus in culture; assay type: cell-based, Herpes Virus Simplex type I; settings: HSV1 TK^−
PV1/Sabin = assay type: cell-based, polio virus type 1; settings: for LOG (TITER/ML) / TITER REDUCTION FACTOR: PV1/Sabin, peptide 25 μg/ml, day 5
PV1/Mahoney = assay type: cell-based, polio virus type 1; settings: peptide 25 μg/ml, day 5
PtK2 fibroblasts = experiment: Study of the penetration of biotinylated polypeptides into cells (peroxidase coloration); assay type: cell-based; settings: after 1 hour of culture, biotinylated polypeptide 5-20 μg/ml
Experimental: Cultured PtK2 fibroblasts seeded the day before in an amount of 5×10^4 cells per well onto glass sheets, are incubated at 37° C., 1-18 hours in complete RPMI 1640 culture medium (or DMEM) (10% foetal calf serum, 2 mM L-glutamine and 1 mM of sodium pyruvate) containing a biotinylated polypeptide of the invention (5-20 μg/ml) The cells were then washed with PBS and fixed with 2% of p-formaldehyde at 4° C. for 10 minutes then washed with PBS. The cells were then incubated with a solution of streptavidin conjugated with 5 μg/ml of peroxidase in PBS for 30 minutes, then washed with PBS and incubated in the peroxidase cytochemical substrate (diaminobenzidine+H2O2). After washing, the cells were examined microscopically.

CCL39 cells = assay type: cell-based, hamster; settings: CCL39, complete medium, no auxiliary agent
Experimental: CCL39 cells (hamster fibroblasts) (5×10^4 cells) were placed in 24 well culture plates for 18 hours before transfection in MEM+10% FCS (foetal calf serum) culture medium. Transfections were carried out in MEM+10% FCS with no other auxiliary agent (CHLOROQUINE). The peptide-PL and free polylysine PL (corresponding to 19 lysines) were complexed with the pCMVLUC plasmid (respectively 24 μg and 70 μg per 6 μg of plasmid) for 30 minutes. The complex was then added dropwise to the CCL39. After incubating for 5 hours, the medium was replaced with fresh medium. Luciferase expression was assayed 24 hours later. The cells were washed twice with PBS. After washing, the cells were lysed with 100 μl of lyse buffer (PROMEGA) for 10-15 minutes. The cells were then centrifuged for 7 minutes at 4° C. to remove cellular debris. 20 μl of this lysate was mixed with 100 μl of luciferase buffer (PROMEGA). The relative luciferase units (RLU) were recorded on a LUMAT LB9501 (BERTHOLD). The protein concentration was determined using a BIORAD PROTEIN ASSAY-1 kit and the amount of luciferase in each sample was normalised per mg of protein, each transfection being carried out three times.

CMV Ad169 strain = experiment: Inhibition of cytomegalovirus (CMV) replication (morphology, plaque counting, Western blot); assay type: cell-based
[1] = Day 1, cells pretreated with 25 μg/ml
[2] = Day 4, cells pretreated with 25 μg/ml

(K)19-AISRGGGYSYYLDTVKRTARATWDWFAY (KKKKKKKKKKKKKKKKKKKAISRGGGYSYYLDTVKRTARATWDWFAY) [K19PC2.1]
CPE inhibition (AI) (HSV-1 TK^+ virus; added H0, 5 μ/well): 69
CPE inhibition (AI) (HSV-1 TK^+ virus; added H + 1, 5 μ/well): 37
CPE inhibition (AI) (HSV-1 TK^+ virus; added H − 1, 5 μ/well): 8
CPE inhibition (AI) (HSV-1 TK^+ virus; added H − 2, 5 μ/well): 1
CPE inhibition (AI) (HSV-1 TK^− virus; added H0, 5 μ/well): 81
CPE inhibition (AI) (HSV-1 TK^− virus; added H0, 10 μ/well): 92
CPE inhibition (AI) (HSV-1 TK^− virus; added H + 1, 5 μ/well): 26
CPE inhibition (AI) (HSV-1 TK^− virus; added H − 1, 5 μ/well): 72
CPE inhibition (AI) (HSV-1 TK^− virus; added H − 2, 5 μ/well): 100
LOG (TITER/ML) (PV1/Sabin): 8.6
TITER REDUCTION FACTOR (PV1/Sabin): 8
LOG (TITER/ML) (PV1/Mahoney): 9.05
TITER REDUCTION FACTOR (PV1/Mahoney): 4

VAYISRGGVSTYYSDTVKGRFTRQKYNKRA [pF4.1]
penetration into cells (peroxidase coloration) (PtK2 fibroblasts): penetrated massively and rapidly into the cells

KKKKKKKKKKKKKKKKKKKVAYISRGGVSTYYSDTVKGRFTRQKYNKRA [K19pF4-1]
CPE inhibition (AI) (HSV-1 TK^+ virus; added H0, 5 μ/well): 13
CPE inhibition (AI) (HSV-1 TK^+ virus; added H0, 10 μ/well): 30
CPE inhibition (AI) (HSV-1 TK^+ virus; added H0, 20 μ/well): 28
CPE inhibition (AI) (HSV-1 TK^+ virus; added H + 1, 5 μ/well): 10
CPE inhibition (AI) (HSV-1 TK^+ virus; added H + 1, 10 μ/well): 12
CPE inhibition (AI) (HSV-1 TK^+ virus; added H + 1, 20 μ/well): 10
CPE inhibition (AI) (HSV-1 TK^+ virus; added H − 1, 5 μ/well): 13
CPE inhibition (AI) (HSV-1 TK^+ virus; added H − 1, 10 μ/well): 30
CPE inhibition (AI) (HSV-1 TK^+ virus; added H − 1, 20 μ/well): 28
CPE inhibition (AI) (HSV-1 TK^+ virus; added H − 2, 5 μ/well): 1
CPE inhibition (AI) (HSV-1 TK^+ virus; added H − 2, 10 μ/well): 2
CPE inhibition (AI) (HSV-1 TK^+ virus; added H − 2, 20 μ/well): 7
CPE inhibition (AI) (HSV-1 TK^− virus; added H0, 5 μ/well): 15
CPE inhibition (AI) (HSV-1 TK^− virus; added H0, 10 μ/well): 25
CPE inhibition (AI) (HSV-1 TK^− virus; added H0, 20 μ/well): 42
CPE inhibition (AI) (HSV-1 TK^− virus; added H + 1, 5 μ/well): 1
CPE inhibition (AI) (HSV-1 TK^− virus; added H + 1, 10 μ/well): 13
CPE inhibition (AI) (HSV-1 TK^− virus; added H + 1, 20 μ/well): 1
CPE inhibition (AI) (HSV-1 TK^− virus; added H − 1, 5 μ/well): 25
CPE inhibition (AI) (HSV-1 TK^− virus; added H − 1, 10 μ/well): 7
CPE inhibition (AI) (HSV-1 TK^− virus; added H − 1, 20 μ/well): 47
CPE inhibition (AI) (HSV-1 TK^− virus; added H − 2, 5 μ/well): 21
CPE inhibition (AI) (HSV-1 TK^− virus; added H − 2, 10 μ/well): 5
CPE inhibition (AI) (HSV-1 TK^− virus; added H − 2, 20 μ/well): 25
toxicity of the polyplex (3T3 cells): did not induce any toxicity
increase of transfection after 24 h with respect to 5 h30 (3T3 cells; 3T3, charge ratio R 4.4): about 1.3 factor
luciferase activity (3T3 cells; 3T3, charge ratio R 4.4, incubating for 5 h30): 2-3×10^7 RLU/mg of protein
inhibiting effect on type 1 polio virus replication (PV1/Sabin): more than 30 factor
LOG (TITER/ML) (PV1/Sabin): 8
TITER REDUCTION FACTOR (PV1/Sabin): 32
LOG (TITER/ML) (PV1/Mahoney): 8.75
TITER REDUCTION FACTOR (PV1/Mahoney): 8
transfection efficacy relative to polylysine alone (CCL39 cells): about 1000 times
transfection efficacy (luciferase) (CCL39 cells; 24 μg peptide per 6 μg pCMVLUC, 5 h incubation): 2×10^6 RLU/mg of proteins
inhibition of infection of cells by CMV (CMV Ad169 strain): ~100%
NUMBER OF PLAQUES FORMED, Mean (CMV Ad169 strain; [1]): 100.0
NUMBER OF PLAQUES FORMED, individual determinations (CMV Ad169 strain; [1]): 100 and 125 and 75
% reduct'n of plaques formed (CMV Ad169 strain; [2]): 99.5%
NUMBER OF PLAQUES FORMED, Mean (CMV Ad169 strain; [2]): 166.7
NUMBER OF PLAQUES FORMED, individual determinations (CMV Ad169 strain; [2]): 0 and 250 (2×)
action on CMV proteins (Western blot) (CMV Ad169 strain; added to cells after viral adsorption): had no action
inhibition of virus replication (CMV Ad169 strain; cells treated before, and at the same time, as viral infection): 99.5%
cytopathogenic effects (morphology) (CMV Ad169 strain; treated at the end of / after viral adsorption): large
appearance of CMV proteins (Western blot) (CMV Ad169 strain; treated at the same time as viral infection): no appearance of late proteins was noted
cytopathogenic effects (morphology) (CMV Ad169 strain; treated before or at the same time as the viral infection): displayed no morphological modifications
appearance of CMV proteins (Western blot) (CMV Ad169 strain; treated before viral infection): the appearance of neither early proteins nor late proteins of the CMV was noted
